In patent US9833497B2, “Human originated EGF domain proteins and use of the same” (CHENGDU SOURCEBIO LIMITED-LIABILITY COMPANY, priority 2013, dated 2017):

Legend:
Type in all cases: cell-based
Citrobacter diversus = experiment: MIC against Gram-negative bacteria: Citrobacter diversus; settings: 96-well plate, 5×10^5 CFU/mL, 37° C., 10 h
Summary of the method: (§1)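 Inocula prepared by growing LB cultures at 37° C to 0.5 McFarland, centrifuging at 4000×g, and resuspending in fresh medium. Final density 5×10^5 CFU/mL per well with two-fold dilutions of purified EGF domain protein; shaking incubation at 37° C.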

E. coli DH5α = experiment: Antibacterial activity: MIC and growth curve against E. coli DH5α in 96-well plate; settings: minimal inhibitory concentration against E. coli DH5α; 96-well plate, 5×10^5 CFU/mL, 37° C., judged after 8 h
Summary of the method: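 Log-phase DH5α (OD600 about 0.5, 37° C, 185 rpm in LB) was pelleted, resuspended in fresh LB and seeded at 5×10^5 CFU/mL with recombinant protein at 50, 25 and 12.5 μg/mL (two-fold series), in triplicate. Plates were shaken at 175 rpm, 37° C, and OD600 was read every 30 min. MIC was the lowest concentration with no growth.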

Proteus vulgaris = experiment: MIC against Gram-negative bacteria: Proteus vulgaris; settings: 96-well plate, 5×10^5 CFU/mL, 37° C., 10 h
Summary of the method: as §1

E. coli BL21 = experiment: MIC against Gram-negative bacteria: E. coli BL21; settings: 96-well plate, 5×10^5 CFU/mL, 37° C., 10 h
Summary of the method: as §1

Aeromonas hydrophila = experiment: MIC against Gram-negative bacteria: Aeromonas hydrophila; settings: 96-well plate, 5×10^5 CFU/mL, 37° C., 10 h
Summary of the method: as §1

Serratia marcescens = experiment: MIC against Gram-negative bacteria: Serratia marcescens; settings: 96-well plate, 5×10^5 CFU/mL, 37° C., 10 h
Summary of the method: as §1

Proteus mirabilis = experiment: MIC against Gram-negative bacteria: Proteus mirabilis; settings: 96-well plate, 5×10^5 CFU/mL, 37° C., 10 h
Summary of the method: as §1

Enterobacter cloacae = experiment: MIC against Gram-negative bacteria: Enterobacter cloacae; settings: 96-well plate, 5×10^5 CFU/mL, 37° C., 10 h
Summary of the method: as §1

Klebsiella pneumonia = experiment: MIC against Gram-negative bacteria: Klebsiella pneumonia; settings: 96-well plate, 5×10^5 CFU/mL, 37° C., 10 h
Summary of the method: as §1

Pseudomonas aeruginosa = experiment: MIC against Gram-negative bacteria: Pseudomonas aeruginosa; settings: 96-well plate, 5×10^5 CFU/mL, 37° C., 10 h
Summary of the method: as §1

Moraxella catarrhalis = experiment: MIC against Gram-negative bacteria: Moraxella catarrhalis; settings: 96-well plate, 5×10^5 CFU/mL, 37° C., 10 h
Summary of the method: as §1

PRT40 (KGIDCSDGFNGGCEQLCLQQTLPLPYDATSSTIFMFCGCVEEYKLAPDGKSCL; listed as Homo sapiens)
MIC (μg/mL) C. diversus (Citrobacter diversus; Citrobacter diversus): 25 µg/mL
MIC (E. coli DH5α): 25 µg/mL
MIC (μg/mL) P. vulgaris (Proteus vulgaris; Proteus vulgaris): 25 µg/mL
MIC (μg/mL) E. coli BL21 (E. coli BL21; E. coli BL21): 12.5 µg/mL
MIC (μg/mL) A. hydrophila (Aeromonas hydrophila; Aeromonas hydrophila): 50 µg/mL
MIC (μg/mL) S. marcescens (Serratia marcescens; Serratia marcescens): 12.5 µg/mL
MIC (μg/mL) P. mirabilis (Proteus mirabilis; Proteus mirabilis): 12.5 µg/mL
MIC (μg/mL) E. cloacae (Enterobacter cloacae; Enterobacter cloacae): 25 µg/mL
MIC (μg/mL) K. pneumonia (Klebsiella pneumonia; Klebsiella pneumonia): 12.5 µg/mL
MIC (μg/mL) P. aeruginosa (Pseudomonas aeruginosa; Pseudomonas aeruginosa): 25 µg/mL
MIC (μg/mL) M. catarrhalis (Moraxella catarrhalis; Moraxella catarrhalis): 12.5 µg/mL

PRT1217 (EITACFPNPCRNGGSCDPIGNTFICNCKAGLTGVTCE; listed as Homo sapiens)
MIC against C. diversus (Citrobacter diversus; Citrobacter diversus): 25 µg/mL
MIC (E. coli DH5α): 50 µg/mL
MIC against P. vulgaris (Proteus vulgaris; Proteus vulgaris): 25 µg/mL
MIC against E. coli BL21 (E. coli BL21; E. coli BL21): 12.5 µg/mL
MIC against A. hydrophila (Aeromonas hydrophila; Aeromonas hydrophila): 50 µg/mL
MIC against S. marcescens (Serratia marcescens; Serratia marcescens): 12.5 µg/mL
MIC against P. mirabilis (Proteus mirabilis; Proteus mirabilis): 50 µg/mL
MIC against E. cloacae (Enterobacter cloacae; Enterobacter cloacae): 25 µg/mL
MIC against K. pneumonia (Klebsiella pneumonia; Klebsiella pneumonia): 12.5 µg/mL
MIC against P. aeruginosa (Pseudomonas aeruginosa; Pseudomonas aeruginosa): 50 µg/mL
MIC against M. catarrhalis (Moraxella catarrhalis; Moraxella catarrhalis): 12.5 µg/mL

PRT547 (CQCHGHSDRCLPGSGVCVDCQHNTEGAHCERCQAGFVSSRDDPSAPCVS; listed as Homo sapiens)
MIC against C. diversus (Citrobacter diversus): 25 µg/mL
MIC (E. coli DH5α): 25 µg/mL
MIC against P. vulgaris (Proteus vulgaris): 12.5 µg/mL
MIC against E. coli BL21 (E. coli BL21): 12.5 µg/mL
MIC against A. hydrophila (Aeromonas hydrophila): 12.5 µg/mL
MIC against S. marcescens (Serratia marcescens): 25 µg/mL
MIC against P. mirabilis (Proteus mirabilis): 25 µg/mL
MIC against E. cloacae (Enterobacter cloacae): 25 µg/mL
MIC against K. pneumonia (Klebsiella pneumonia): 50 µg/mL
MIC against P. aeruginosa (Pseudomonas aeruginosa): 25 µg/mL
MIC against M. catarrhalis (Moraxella catarrhalis): 50 µg/mL

PRT69 (RRNFCDGRRCQNGGTCVNRWNMYLCECPLRFGGKNCE; listed as Homo sapiens)
MIC (μg/mL) C. diversus (Citrobacter diversus; Citrobacter diversus): 25 µg/mL
MIC (E. coli DH5α): 12.5 µg/mL
MIC (μg/mL) P. vulgaris (Proteus vulgaris; Proteus vulgaris): 12.5 µg/mL
MIC (μg/mL) E. coli BL21 (E. coli BL21; E. coli BL21): 12.5 µg/mL
MIC (μg/mL) A. hydrophila (Aeromonas hydrophila; Aeromonas hydrophila): 12.5 µg/mL
MIC (μg/mL) S. marcescens (Serratia marcescens; Serratia marcescens): 12.5 µg/mL
MIC (μg/mL) P. mirabilis (Proteus mirabilis; Proteus mirabilis): 12.5 µg/mL
MIC (μg/mL) E. cloacae (Enterobacter cloacae; Enterobacter cloacae): 25 µg/mL
MIC (μg/mL) K. pneumonia (Klebsiella pneumonia; Klebsiella pneumonia): 12.5 µg/mL
MIC (μg/mL) P. aeruginosa (Pseudomonas aeruginosa; Pseudomonas aeruginosa): 25 µg/mL
MIC (μg/mL) M. catarrhalis (Moraxella catarrhalis; Moraxella catarrhalis): 12.5 µg/mL

PRT96 (AQRFCPDGSPSECHEHADCVLERDGSRSCVCAVGWAGNGILCG; listed as Homo sapiens)
MIC (μg/mL) C. diversus (Citrobacter diversus; Citrobacter diversus): 12.5 µg/mL
MIC (E. coli DH5α): 12.5 µg/mL
MIC (μg/mL) P. vulgaris (Proteus vulgaris; Proteus vulgaris): 25 µg/mL
MIC (μg/mL) E. coli BL21 (E. coli BL21; E. coli BL21): 25 µg/mL
MIC (μg/mL) A. hydrophila (Aeromonas hydrophila; Aeromonas hydrophila): 12.5 µg/mL
MIC (μg/mL) S. marcescens (Serratia marcescens; Serratia marcescens): 12.5 µg/mL
MIC (μg/mL) P. mirabilis (Proteus mirabilis; Proteus mirabilis): 12.5 µg/mL
MIC (μg/mL) E. cloacae (Enterobacter cloacae; Enterobacter cloacae): 12.5 µg/mL
MIC (μg/mL) K. pneumonia (Klebsiella pneumonia; Klebsiella pneumonia): 12.5 µg/mL
MIC (μg/mL) P. aeruginosa (Pseudomonas aeruginosa; Pseudomonas aeruginosa): 12.5 µg/mL
MIC (μg/mL) M. catarrhalis (Moraxella catarrhalis; Moraxella catarrhalis): 12.5 µg/mL

PRT1284 (LVDLCSPDLNPCQHEAQCVGTPDGPRCECMPGYAGDNCS; listed as Homo sapiens)
MIC against C. diversus (Citrobacter diversus; Citrobacter diversus): 12.5 µg/mL
MIC (E. coli DH5α): 25 µg/mL
MIC against P. vulgaris (Proteus vulgaris; Proteus vulgaris): 25 µg/mL
MIC against E. coli BL21 (E. coli BL21; E. coli BL21): 50 µg/mL
MIC against A. hydrophila (Aeromonas hydrophila; Aeromonas hydrophila): 12.5 µg/mL
MIC against S. marcescens (Serratia marcescens; Serratia marcescens): 12.5 µg/mL
MIC against P. mirabilis (Proteus mirabilis; Proteus mirabilis): 12.5 µg/mL
MIC against E. cloacae (Enterobacter cloacae; Enterobacter cloacae): 25 µg/mL
MIC against K. pneumonia (Klebsiella pneumonia; Klebsiella pneumonia): 12.5 µg/mL
MIC against P. aeruginosa (Pseudomonas aeruginosa; Pseudomonas aeruginosa): 25 µg/mL
MIC against M. catarrhalis (Moraxella catarrhalis; Moraxella catarrhalis): 50 µg/mL

PRT635 (DINECLEDKSVCQRGDCINTAGSYDCTCPDGFQLDDNKTCQ; listed as Homo sapiens)
MIC C. diversus (Citrobacter diversus): 12.5 µg/mL
MIC (E. coli DH5α): 12.5 µg/mL
MIC P. vulgaris (Proteus vulgaris): 12.5 µg/mL
MIC E. coli BL21 (E. coli BL21): 25 µg/mL
MIC A. hydrophila (Aeromonas hydrophila): 25 µg/mL
MIC S. marcescens (Serratia marcescens): 25 µg/mL
MIC P. mirabilis (Proteus mirabilis): 25 µg/mL
MIC E. cloacae (Enterobacter cloacae): 12.5 µg/mL
MIC K. pneumonia (Klebsiella pneumonia): 25 µg/mL
MIC P. aeruginosa (Pseudomonas aeruginosa): 12.5 µg/mL
MIC M. catarrhalis (Moraxella catarrhalis): 12.5 µg/mL
